PMC4365270 (Cancer Chemotherapy and Pharmacology, 2015)
Entries after “also recorded” stand apart in the source; their conditions may differ.

Key:
[1] = parameters: method as in PMID 23813446; conditions: mice; cited from earlier work
[2] = Safety/tolerability: AE, ADR, DLT in patients with advanced cancer; type: in vivo
From the text: This was a multicenter, uncontrolled, open-label, dose-escalation study on DEBIO1143 in patients with advanced cancer. It employed an accelerated titration design for dose escalation with 100 % dose increments in consecutively enrolled single patients until drug-related grade-2 toxicity was observed during the initial treatment cycle (until day 28 or day 21 as per protocol amendment). If this was the case, cohort size was expanded to three patients and dosing increment was reduced to 50 % of the last dose. Dose escalation was to be stopped at the MTD which was considered exceeded if at any dose level more than one patient experienced dose-limiting toxicity (DLT) during the first treatment cycle. DLT was defined as any of the following: (a) non-hematological toxicity of grade ≥3 (excluding nausea, vomiting, diarrhea unless not controlled by maximal antiemetic/diarrheal therapy for >24 h); (b) anemia or neutropenia of grade ≥3 or thrombocytopenia of grade 4 or any grade if associated with clinically significant bleeding; (c) any AE resulting in dose delay or reduction; (d) any toxicity considered dose-limiting by the investigator. If only one out of the three patients of a cohort experienced drug-related DLT, the cohort was expanded by another three patients to be treated at the same dose level. If none of these additional patients experienced DLT, the dose escalation by 50 %, rounded down to the nearest capsule strength combination, continued in the next cohort of three patients.
The incidence of AE, ADR, and DLT was recorded at all scheduled visits (on days 1, 15, and 28 of each cycle and additionally on days 5, 8, and 22 of cycle 1) and graded according to the Common Terminology Criteria for Adverse Events, version 4.0 of the National Cancer Institute. Moreover, safety laboratory, 12-lead ECG, vital sign measurements, and physical examinations were performed.

[3] = system: multiple mouse cancer models; conditions: cited from earlier work
[4] = system: chemokine ligand 2 (CCL2, MCP1); assay: Plasma CCL2 ELISA; type: in vivo, human
Procedure: (§1) cIAP-1 levels were measured in tumor tissue and surrogate tissue as available. Peripheral blood mononuclear cells (PBMCs) were analyzed for DEBIO1143-induced cIAP-1 degradation. Plasma native cytokeratin-18 ([…]) or caspase-3 generated cytokeratin-18 fragments (M30), interleukin 8 (IL8), chemokine ligand 2 (CCL2, MCP1), and tumor necrosis factor α (TNFα) were measured by ELISA as markers of epithelial cell death and inflammation on days 1 (predose, 1, 3, 6, and 12 h postdose), 2, and 5. […] For the detection of cIAP-1 in paraffin-embedded human tissue, a validated immunohistochemical (IHC) assay was used. DEBIO1143-induced cIAP-1 degradation was measured in PBMCs using Western blot. Plasma biomarkers were measured through commercial ELISAs. All laboratory analyses were performed by MPI Research, Inc. (PK) and Mosaic Laboratory, LLC (PD).

[5] = system: caspase-3 generated cytokeratin-18 fragments (M30); assay: Plasma M30 ELISA; type: in vivo, human; conditions: day 5, p < 0.0033
Procedure: as §1

[6] = system: advanced solid tumors and lymphomas; assay: Antitumor activity (RECIST 1.1 / lymphoma criteria); type: in vivo, human
Procedure: Tumor evaluations were scheduled before therapy and after every other cycle of therapy. Changes were determined by physical examination, tumor markers, or standard imaging techniques. […] Read-outs were complete response (CR), partial response (PR), stable disease (SD), and disease progression (DP).

In the case of `CN[C@@H](C)C(=O)N[C@H]1CN(C(=O)CC(C)C)CC[C@H]2CC[C@@H](C(=O)NC(c3ccccc3)c3ccccc3)N2C1=O` [DEBIO1143], the Oral bioavailability [1] is listed as “good”, the “Deaths during the study” value ([2]; N=31) is listed as “No patient died” and the “Dose dependence of AEs” value ([2]; human, in vivo) is listed as “neither incidence nor severity increased with dose”. The Dose-limiting toxicity observed ([2]; human, in vivo) was “grade 3 reversible ALT elevation”, the “Grade 4–5 treatment-related AE” value ([2]; human, in vivo) was “no grade 4–5 treatment-related AE” and the “Number of AEs” value ([2]; human, in vivo) was 242. For the same molecule, the “Number of SAEs” value ([2]; human, in vivo) was 13, the “Number of dose-limiting toxicities (DLT)” value ([2]; human, in vivo) was “one” and the “SAEs related to study drug” value ([2]; human, in vivo) was “none of which was considered related to study drug”. The “Safety laboratory, ECG, vital signs, body weight, ECOG performance status” value ([2]; human, in vivo) was “No clinically meaningful trends”, the “Maximum tolerated dose (MTD)” value ([2]; oral, days 1–5 every 2 or 3 weeks, up to 900 mg) was “No MTD was found; also recorded: not reached” and the “Effect on irradiation or chemotherapeutic agents” value [3] was “enhance the antitumoral effects”. For the same molecule, the “Patients with increased plasma CCL2” value ([4]; 900 mg) was “five out of six”, the “Plasma CCL2, mean increase” value ([4]; 900 mg, six patients) was 45% and the “Plasma CCL2 increase, range” value ([4]; 900 mg, six patients) was −6 to 54%. For the same molecule, the “Plasma CCL2 increase, significance” value ([4]; 3 and 6 h postdose, p < 0.0001) was “significant”, the “Patients with increased plasma CCL2” value ([4]; all dose levels, 25 patients) was 14 and the “Plasma level of M30” value [5] was “increased significantly”. For the same molecule, the “Complete or partial response” value ([6]; 31 patients) was “No patient had a complete or partial response”, the “Duration of stable disease, range” value ([6]; five patients) was 85 to 197 days and the “Median duration of stable disease” value ([6]; five patients) was 93 days. For the same molecule, the “Reduction in target lesion dimensions” value ([6]; one patient with metastatic melanoma, 400 mg/day) was 11%.
